Earlier results, collected in US10363219B2, “Method of preparing albumin nanoparticle carrier wrapping taxane drug” (Zhejiang Academy of Forestry, priority 2016, dated 2019).

Conditions: relative to paclitaxel

With CC(=O)O[C@@]12CO[C@@H]1C[C@H](O)[C@@]1(C)C(=O)[C@H](O)C3=C(C)[C@@H](OC(=O)[C@H](O)[C@@H](NC(=O)OC(C)(C)C)c4ccccc4)C[C@@](O)([C@@H](OC(=O)c4ccccc4)[C@H]21)C3(C)C [Docetaxel] as the compound, how does the “cytotoxic effect, times of that of paclitaxel” value read?
Its value is 1.3-12 times.
